The text below walks through data of patent US6924311B2, “Methods for affecting various diseases utilizing LXR compounds” (X-Ceptor Therapeutics, Inc., priority 2001, dated 2005).

The test system of assay [1] is lipoprotein lipase (LPL) mRNA. The experiment in a line: Liver lipoprotein lipase (LPL) mRNA by quantitative PCR in treated mice. The assay is classed as in vivo. The note with it: 10 mg/kg daily oral; for LPL mRNA induction: day 7. From the text: To decipher the physiological roles of LXRα and LXRβ mice, seven different lines of mice encompassing four unique LXR genotypes (LXRα+/+, LXRβ+/+=wildtype; LXRα−/−, LXRβ+/+=LXRα−/−; LXRα+/+, LXRβ−/−=LXRβ−/−; LXRα−/−, LXRβ−/−=LXRαβ−/−) were studied. Genetic knockouts of LXRα( LXRα−/−) were generated in two independent mouse strain backgrounds (C57BL/6 and A129). Genetic knockouts of LXRβ (LXRβ−/−) and the double knockout of LXRα and LXRβ (LXRαβ−/−) were generated in a mixed genetic background (C57BL/6×A129). The three appropriate wildtype (LXRα+/+, LXRβ+/+) mouse lines were used as controls. Mice from each line were treated for seven days with 10 mg compound/kg body weight of the LXR agonist Compound 1: N-(2,2,2-trifluoroethyl)-N-[4-(2,2,2- trifluoro-1-hydroxy-1-trifluoromethylethyl)-phenyl]-benzene sulfonamide. […] Compound 1 was administered by daily oral gavage in a sesame oil/ethanol vehicle via a 1-cc syringe fitted with a 20G disposable feeding needle. Compound was solvated in ethanol (5% final volume) and brought up to final volume with sesame oil (Sigma, St. Louis, Mo.).

The test system of assay [2] is ABCA1 mRNA. As to the kind of experiment: ABCA1 mRNA induction in cultured peritoneal macrophages. The assay is classed as cell-based, mice. The settings on record: 24 hours. From the text: The individual contributions of both receptors to macrophage gene expression were examined by first measuring the amount of mRNA encoding LXRα and LXRβ in thioglycolate-elicited peritoneal macrophages obtained from mixed wildtype mice. Thioglycolate-elicited peritoneal macrophages were isolated from mice 4 days after peritoneal injection of thioglycolate media. Peritoneal macrophages were harvested by lavage of the peritoneum with phosphate buffered saline (PBS), cells were washed, transferred to 60 mm culture plates and incubated at 37° C. in RPMI 1640 media (Life Technologies) containing 10% FBS, 2 mmol/L glutamine, 100 μg/mL streptomycin and 100 IU penicillin (Life Technologies). After 5 hours at 37° C., cells were washed 5 times with PBS to remove non-adherent cells and adherent cells were further incubated in RPMI 1640 media supplemented with 10% FBS for 24 hours. To determine the mRNA levels of LXRα and LXRβ, after 24 hours total RNA was isolated from cultured macrophages using RNeasy kits (QIAGEN Inc.) according to the supplier's total RNA isolation procedure. The RNA samples were further treated with deoxyribonuclease I to eliminate contaminating genomic DNA. LXRα and LXRβ mRNA levels were than analyzed by real-time based quantitative PCR using Perkin Elmer ABI Prism 7700 and Sequence Detection System software (Perkin Elmer). […] To further examine LXR-dependent gene expression in macrophages, peritoneal macrophages were isolated as described above from mixed wildtype, LXRα−/− (C57BL/6), LXRβ−/−, and LXRαβ−/− mice. After removal of non-adherent cells, the remaining macrophages were than cultured in either the absence or presence of LXR pan-agonist (1.0 μM Compound 1) for 24 hours. At the end of the experiment total RNA was isolated from cultured macrophages using RNeasy kits (QIAGEN Inc.) according to the supplier's total RNA isolation procedure. RNA samples were further treated with deoxyribonuclease I to eliminate contaminating genomic DNA before use. The LXR agonist-dependent induction of the ABCA1 and ABCG1 mRNAs were than analyzed by real-time based quantitative PCR using Perkin Elmer ABI Prism 7700 and Sequence Detection System software (Perkin Elmer). ABCA1 and ABCG1 function as efflux pumps that mediate the transfer of intracellular cholesterol out of cells to HDL particles, a process referred to as reverse cholesterol transport. […] Elimination of LXRα activity (LXRα−/−) has no effect on the agonist-dependent response. In contrast, elimination of LXRβ activity (LXRβ−/−) reduces the agonist-dependent induction of ABCA1 by 82% and the ABCG1 induction by 50%. […] Thus LXRβ alone is sufficient to allow the maximum induction of ABCA1 and ABCG1 in peritoneal macrophages.

In assay [3] the target is T1, LXRβ (Homo sapiens, UniProt P55055).
T1 sequence (P55055 1-460): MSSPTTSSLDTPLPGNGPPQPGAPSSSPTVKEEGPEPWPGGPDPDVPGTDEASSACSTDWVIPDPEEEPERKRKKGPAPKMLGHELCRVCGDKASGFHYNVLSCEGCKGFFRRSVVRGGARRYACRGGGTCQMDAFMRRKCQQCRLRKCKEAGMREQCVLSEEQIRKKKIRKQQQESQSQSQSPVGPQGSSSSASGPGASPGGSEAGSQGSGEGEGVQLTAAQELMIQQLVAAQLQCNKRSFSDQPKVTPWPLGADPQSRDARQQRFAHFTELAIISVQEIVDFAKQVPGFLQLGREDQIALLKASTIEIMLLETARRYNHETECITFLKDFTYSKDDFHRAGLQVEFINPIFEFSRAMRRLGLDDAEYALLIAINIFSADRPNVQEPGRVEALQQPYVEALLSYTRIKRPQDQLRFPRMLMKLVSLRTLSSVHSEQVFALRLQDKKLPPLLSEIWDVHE
The note with it: stated as considered, no test described; cited from earlier work.

Each structure is given as a SMILES string.

For `O=S(=O)(c1ccccc1)N(CC(F)(F)F)c1ccc(C(O)(C(F)(F)F)C(F)(F)F)cc1` [Compound 1, N-(2,2,2-trifluoroethyl)-N-[4-(2,2,2-trifluoro-1-hydroxy-1-trifluoromethylethyl)-phenyl]-benzene sulfonamide], the “LPL mRNA induction” value in assay [1] (LXRα−/− mice (C57BL/6 and A129)) is listed as “completely blocks the pan-agonist induction of LPL”; in assay [1] (LXRβ−/− mice), “little or no effect”. The fold induction at 10 mg/kg in assay [1] (Mus musculus, 168 h, wildtype mice, day 7, read-out: LPL mRNA fold induction (+Compound 1/vehicle)) was in the range of 3 to 9. The “agonist-dependent ABCA1 mRNA induction” value in assay [2] (LXRαβ−/− macrophages, 1.0 μM) was “completely blocks the response”; in assay [2] (LXRα−/− macrophages, 1.0 μM), “no effect”. Further, the “reduction of agonist-dependent induction of ABCA1” value in assay [2] (LXRβ−/− macrophages versus wildtype, 1.0 μM) is 82%. In assay [2] (Mus musculus, Macrophage, wildtype macrophages), the fold induction at 1 µM is 28. In addition, in assay [3], the “binding and activation of LXRβ” value is “binds and activates both LXRα and LXRβ with similar potency and efficacy”.
